Data reported in US7105518B2, “Thiopyrane-4-ones as DNA protein kinase inhibitors” (priority 2001, dated 2006).
Like-named read-outs stand apart in the source and are kept apart here.

What was measured:
[1] = target: T1, Baculoviral recombinant GST-fused PI 3-kinase (p110α/p85α) (Homo sapiens, UniProt P42336); experiment: PI 3-kinase inhibition assay; assay type: biochemical
T1 construct: GST; made in house; host or cells: Sf9 insect cells (baculovirus)
Protocol: In order to assess the inhibitory action of the compounds against PI 3-kinase in vitro, the following assay was used to determine IC50 values.
PI 3-kinase (1 μl) was diluted in reaction buffer (89 μl of 50 mM Hepes pH 7.5, 150 mM NaCl, 0.1 mM Sodium Orthovanadate, containing 20 μg of phosphatidylinositol) and varying concentrations of inhibitor compound added. […] Reactions were incubated for a further 20 minutes at 37° C., before quenching with the addition of 400 μl of chloroform/methanol (1:1). Reactions were acidified by the addition of 200 μl of 1M HCl, before separation of the organic and aqueous phases by centrifugation at 10,000 g for 30 seconds. The organic phase was transferred to a fresh tube and washed twice with 150 μl of 1M hydrochloric acid/methanol (1:1), discarding the aqueous phase. The washed reaction product was then placed in a white 96-well plate with 100 μl of scintillation fluid and transferred to a TopCount NXT for scintillation counting. Counts per minute, following a one minute counting time, were recorded for each reaction. The inhibition of PI 3-kinase activity by compounds was calculated as described above for the DNA-PK assay.
(§1) The selectivity was determined by the following equation: […]

[2] = target: T2, ATM protein immunoprecipitated from HeLa cell nuclear extract (Homo sapiens, UniProt Q13315); experiment: ATM inhibition assay (GSTp53N66 serine 15 phosphorylation, chemiluminescence); assay type: biochemical; conditions: concentrations between 100 and 1 μM
T2 construct: ATM protein was immunoprecipitated from HeLa cell nuclear extract; endogenous in cells; host or cells: HeLa cell nuclear extract (immunoprecipitate)
Protocol: In order to assess the inhibitory action of the compounds against ATM in vitro, the following assay was used to determine IC50 values.
ATM protein was immunoprecipitated from HeLa cell nuclear extract using rabbit polyclonal antisera raised to the C-terminal ˜500 amino-acid residues of the human ATM protein. […] 10 μl of immunoprecipitated ATM in Buffer C (50 mM Hepes, pH 7.4, 6 mM MgCl2, 150 mM NaCl, 0.1 mM sodium orthovanadate, 4 mM MnCl2, 0.1 mM dithiothreitol, 10% glycerol) was added to 32.5 μl of buffer C containing 1 μg of the ATM substrate GSTp53N66 in a V-bottomed 96 well polypropylene plate. The GSTp53N66 substrate is the amino terminal 66 amino acid residues of human wild type p53 fused to glutathione S-transferase. […] Varying concentrations of inhibitor were then added. […] After 10 minutes of incubation at 37° C., the reactions were initiated by the addition of 5 μl of 50 μM Na-ATP. After 1 h with shaking at 37° C., 150 μl of phosphate buffered saline (PBS) was added to the reaction and the plate centrifuged at 1500 rpm for 10 minutes. 5 μl of the reaction was then transferred to a 96 well opaque white plate containing 45 μl of PBS to allow the GSTp53N66 substrate to bind to the plate wells. The plate was covered and incubated at room temperature for 1 h with shaking before discarding the contents. The plate wells were washed twice by the addition of PBS prior to the addition of 3% (w/v) bovine serum albumin (BSA) in PBS. The plate was incubated at room temperature for 1 h with shaking before discarding the contents and washing twice with PBS. To the wells, 50 μl of a 1:10, 000 dilution of primary phosphoserine-15 antibody (Cell Signaling Technology, #9284L) in 3% BSA/PBS was added to detect the phosphorylation event on the serine 15 residue of p53 elicited by the ATM kinase. […] The wells were then washed four times with PBS before the addition of chemiluminescence reagent (NEN Renaissance, NEL105). The plate was then shaken briefly, covered with a transparent plate seal and transferred to a TopCount NXT for chemiluminescent counting. Counts per second, following a one second counting time, were recorded for each reaction. The inhibition of ATM activity by compounds was calculated as described above for the DNA-PK assay.
as §1

[3] = target: T3, Mammalian DNA-PK, isolated from Hela cell nuclear extract (Homo sapiens, UniProt P78527); experiment: DNA-PK inhibition assay (33P-ATP, phosphocellulose filter, scintillation counting); assay type: biochemical; conditions: for inhibition at 1 µM: read-out: inhibition of DNA-PK at 1 μM; for inhibition at 2 µM: read-out: inhibition of DNA-PK at 2 μM, single concentration 2 μM
T3 construct: Mammalian DNA-PK, isolated from Hela cell nuclear extract; endogenous in cells; host or cells: HeLa cell nuclear extract
Protocol: In order to assess the inhibitory action of the compounds against DNA-PK in vitro, the following assay was used.
The total assay volume per well was 40 μl.
After 10 minutes of incubation at 30° C. the reactions were initiated by the addition of Na-ATP (50 μM final), ^33P-γATP and a 30mer double stranded DNA oligonucleotide (10 ng/μl) in a volume of 10 μl. Designated positive and negative reaction wells were done in combination with compound wells (unknowns) in order to calculate % enzyme activities. The plates were then shaken for 2 minutes and incubated at 30° C. for 45 minutes.
Following the incubation, the reactions were quenched by the addition of 50 μl 30% acetic acid to each well. The plates were then shaken for 5 minutes and the contents of each plate (80 μl from each well) transferred over to a 96 well Polyfiltronics filtration plate, containing P81-phosphocellulose membrane (TRADE MARK)(Whatman, UK). The solutions were vacuum pumped through the membrane and each well membrane washed four times using 300 μl of 15% acetic acid. The well membranes were then air dried and 20 μl of scintillant was added to each well.
The plates were transferred to a TopCount NXT (TRADE MARK) (Packard, UK) for scintillation counting. Values recorded are counts per minute (cpm) following a 1 minute counting time for each well.
The enzyme activity for each compound is then calculated using the following equation: […]
In Table 1 below, the results are IC50 values (the concentration at which 50% of the enzyme activity is inhibited). These are determined over a range of different concentrations, normally from 10 μM down to 0.01 μM. Such IC50 values are used as comparative values to identify increased compound potencies.

[4] = target: PI 3-kinase; conditions: literature, stated the same as for DNA-PK; cited from earlier work
[5] = system: mammalian cells in culture; conditions: literature; cited from earlier work

T2 sequence (Q13315 whole entry): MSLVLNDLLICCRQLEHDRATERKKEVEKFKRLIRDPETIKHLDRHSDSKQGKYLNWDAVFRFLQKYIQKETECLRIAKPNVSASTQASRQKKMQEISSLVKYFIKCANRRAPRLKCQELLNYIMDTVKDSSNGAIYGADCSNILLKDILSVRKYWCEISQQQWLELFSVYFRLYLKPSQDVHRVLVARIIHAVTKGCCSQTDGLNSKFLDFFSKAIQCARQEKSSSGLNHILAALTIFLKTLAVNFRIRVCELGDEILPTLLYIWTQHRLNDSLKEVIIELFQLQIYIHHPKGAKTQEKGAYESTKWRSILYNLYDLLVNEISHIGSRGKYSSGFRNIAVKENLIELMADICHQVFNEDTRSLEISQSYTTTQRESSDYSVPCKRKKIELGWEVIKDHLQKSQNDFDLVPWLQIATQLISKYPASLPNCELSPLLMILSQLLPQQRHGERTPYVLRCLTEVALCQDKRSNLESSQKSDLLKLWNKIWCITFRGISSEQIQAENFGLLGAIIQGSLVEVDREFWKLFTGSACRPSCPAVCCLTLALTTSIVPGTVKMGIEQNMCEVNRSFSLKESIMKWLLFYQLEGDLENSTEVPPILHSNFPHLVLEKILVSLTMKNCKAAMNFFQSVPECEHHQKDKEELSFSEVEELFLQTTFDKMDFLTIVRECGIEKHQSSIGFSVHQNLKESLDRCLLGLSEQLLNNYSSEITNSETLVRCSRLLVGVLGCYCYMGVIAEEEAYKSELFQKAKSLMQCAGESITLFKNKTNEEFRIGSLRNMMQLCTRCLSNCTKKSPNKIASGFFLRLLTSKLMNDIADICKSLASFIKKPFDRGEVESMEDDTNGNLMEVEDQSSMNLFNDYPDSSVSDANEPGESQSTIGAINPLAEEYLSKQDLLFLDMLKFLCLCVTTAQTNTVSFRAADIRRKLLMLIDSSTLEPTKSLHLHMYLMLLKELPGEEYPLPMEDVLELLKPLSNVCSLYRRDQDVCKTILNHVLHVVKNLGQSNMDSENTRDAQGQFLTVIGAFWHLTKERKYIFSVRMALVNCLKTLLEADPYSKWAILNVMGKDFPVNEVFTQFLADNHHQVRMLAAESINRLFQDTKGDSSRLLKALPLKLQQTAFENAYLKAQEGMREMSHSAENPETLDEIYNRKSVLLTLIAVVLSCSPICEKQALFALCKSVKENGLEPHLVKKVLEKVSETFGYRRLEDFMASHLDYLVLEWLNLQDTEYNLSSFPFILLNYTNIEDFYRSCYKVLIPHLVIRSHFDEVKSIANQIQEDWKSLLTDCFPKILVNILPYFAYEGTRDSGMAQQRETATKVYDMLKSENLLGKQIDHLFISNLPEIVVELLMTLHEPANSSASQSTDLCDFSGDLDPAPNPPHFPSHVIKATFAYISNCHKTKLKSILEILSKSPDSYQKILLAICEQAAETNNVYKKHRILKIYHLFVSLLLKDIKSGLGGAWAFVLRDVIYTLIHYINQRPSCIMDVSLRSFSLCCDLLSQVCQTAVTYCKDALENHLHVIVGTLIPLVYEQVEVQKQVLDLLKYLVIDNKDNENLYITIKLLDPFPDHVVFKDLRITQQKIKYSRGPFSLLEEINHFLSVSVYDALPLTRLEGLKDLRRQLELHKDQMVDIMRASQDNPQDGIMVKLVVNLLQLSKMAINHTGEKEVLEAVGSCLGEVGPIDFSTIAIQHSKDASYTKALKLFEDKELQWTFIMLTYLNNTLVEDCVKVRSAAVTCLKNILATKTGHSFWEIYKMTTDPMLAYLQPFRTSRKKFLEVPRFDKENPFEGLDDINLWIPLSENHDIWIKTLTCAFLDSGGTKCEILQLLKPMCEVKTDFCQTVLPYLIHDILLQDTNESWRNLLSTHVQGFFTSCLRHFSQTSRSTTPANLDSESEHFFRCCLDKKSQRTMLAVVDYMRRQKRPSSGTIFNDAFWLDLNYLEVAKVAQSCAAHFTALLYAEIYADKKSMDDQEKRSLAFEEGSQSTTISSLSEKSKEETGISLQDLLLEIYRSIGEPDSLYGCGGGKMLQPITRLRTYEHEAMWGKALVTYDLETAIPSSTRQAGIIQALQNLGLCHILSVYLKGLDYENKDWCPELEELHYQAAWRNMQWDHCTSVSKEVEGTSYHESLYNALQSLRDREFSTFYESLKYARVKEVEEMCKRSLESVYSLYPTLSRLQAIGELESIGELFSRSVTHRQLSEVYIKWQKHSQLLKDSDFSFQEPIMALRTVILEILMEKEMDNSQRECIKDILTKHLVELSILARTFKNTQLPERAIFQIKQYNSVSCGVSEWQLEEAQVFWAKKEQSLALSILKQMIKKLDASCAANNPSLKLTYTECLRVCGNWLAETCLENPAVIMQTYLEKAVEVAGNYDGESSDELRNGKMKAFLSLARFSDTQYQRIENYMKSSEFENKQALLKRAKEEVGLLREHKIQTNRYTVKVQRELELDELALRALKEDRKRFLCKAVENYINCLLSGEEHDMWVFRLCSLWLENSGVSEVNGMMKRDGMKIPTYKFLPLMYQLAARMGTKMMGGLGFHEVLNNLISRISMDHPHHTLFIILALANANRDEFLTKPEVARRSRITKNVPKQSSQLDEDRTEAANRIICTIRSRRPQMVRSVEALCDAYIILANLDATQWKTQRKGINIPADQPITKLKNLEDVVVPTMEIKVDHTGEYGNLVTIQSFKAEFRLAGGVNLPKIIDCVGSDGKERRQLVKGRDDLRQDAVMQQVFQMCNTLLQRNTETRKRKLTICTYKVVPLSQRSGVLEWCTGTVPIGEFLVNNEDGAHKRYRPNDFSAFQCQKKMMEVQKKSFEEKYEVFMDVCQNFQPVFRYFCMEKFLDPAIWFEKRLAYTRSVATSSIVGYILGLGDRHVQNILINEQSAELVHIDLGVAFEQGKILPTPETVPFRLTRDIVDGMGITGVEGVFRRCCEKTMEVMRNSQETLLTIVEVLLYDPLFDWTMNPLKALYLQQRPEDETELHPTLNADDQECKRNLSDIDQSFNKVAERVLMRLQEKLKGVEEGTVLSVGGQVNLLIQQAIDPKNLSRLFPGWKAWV
T1 sequence (P42336 whole entry, species assumed, the tested form may be a part): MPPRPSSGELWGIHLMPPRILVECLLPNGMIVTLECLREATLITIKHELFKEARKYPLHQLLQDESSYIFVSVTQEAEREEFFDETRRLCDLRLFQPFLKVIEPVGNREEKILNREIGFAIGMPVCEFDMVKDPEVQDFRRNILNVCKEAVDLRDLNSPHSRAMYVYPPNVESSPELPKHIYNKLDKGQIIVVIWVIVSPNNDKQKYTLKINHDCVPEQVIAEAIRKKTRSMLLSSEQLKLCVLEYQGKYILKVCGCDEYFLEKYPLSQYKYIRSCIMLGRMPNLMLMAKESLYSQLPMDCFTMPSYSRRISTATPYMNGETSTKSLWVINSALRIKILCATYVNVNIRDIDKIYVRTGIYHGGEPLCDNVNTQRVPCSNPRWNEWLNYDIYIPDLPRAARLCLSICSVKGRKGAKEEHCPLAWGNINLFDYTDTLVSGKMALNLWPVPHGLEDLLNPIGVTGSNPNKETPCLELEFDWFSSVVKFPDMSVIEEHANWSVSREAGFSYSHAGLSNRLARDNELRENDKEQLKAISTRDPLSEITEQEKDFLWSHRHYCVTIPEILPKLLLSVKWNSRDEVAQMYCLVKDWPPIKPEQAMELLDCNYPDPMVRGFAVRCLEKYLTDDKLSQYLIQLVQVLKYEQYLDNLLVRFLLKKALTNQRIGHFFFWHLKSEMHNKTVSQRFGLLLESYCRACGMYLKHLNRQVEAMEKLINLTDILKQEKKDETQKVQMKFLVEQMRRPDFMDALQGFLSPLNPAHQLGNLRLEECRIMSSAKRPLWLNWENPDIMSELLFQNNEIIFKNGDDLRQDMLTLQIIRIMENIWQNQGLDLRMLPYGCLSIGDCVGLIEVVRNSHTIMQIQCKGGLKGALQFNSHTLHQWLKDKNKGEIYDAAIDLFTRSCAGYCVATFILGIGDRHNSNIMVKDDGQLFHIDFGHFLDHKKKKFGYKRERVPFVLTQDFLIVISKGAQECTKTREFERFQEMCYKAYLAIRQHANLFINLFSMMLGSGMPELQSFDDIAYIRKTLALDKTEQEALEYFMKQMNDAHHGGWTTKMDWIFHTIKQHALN
T1 sequence (P27986 whole entry partner, species assumed, the tested form may be a part): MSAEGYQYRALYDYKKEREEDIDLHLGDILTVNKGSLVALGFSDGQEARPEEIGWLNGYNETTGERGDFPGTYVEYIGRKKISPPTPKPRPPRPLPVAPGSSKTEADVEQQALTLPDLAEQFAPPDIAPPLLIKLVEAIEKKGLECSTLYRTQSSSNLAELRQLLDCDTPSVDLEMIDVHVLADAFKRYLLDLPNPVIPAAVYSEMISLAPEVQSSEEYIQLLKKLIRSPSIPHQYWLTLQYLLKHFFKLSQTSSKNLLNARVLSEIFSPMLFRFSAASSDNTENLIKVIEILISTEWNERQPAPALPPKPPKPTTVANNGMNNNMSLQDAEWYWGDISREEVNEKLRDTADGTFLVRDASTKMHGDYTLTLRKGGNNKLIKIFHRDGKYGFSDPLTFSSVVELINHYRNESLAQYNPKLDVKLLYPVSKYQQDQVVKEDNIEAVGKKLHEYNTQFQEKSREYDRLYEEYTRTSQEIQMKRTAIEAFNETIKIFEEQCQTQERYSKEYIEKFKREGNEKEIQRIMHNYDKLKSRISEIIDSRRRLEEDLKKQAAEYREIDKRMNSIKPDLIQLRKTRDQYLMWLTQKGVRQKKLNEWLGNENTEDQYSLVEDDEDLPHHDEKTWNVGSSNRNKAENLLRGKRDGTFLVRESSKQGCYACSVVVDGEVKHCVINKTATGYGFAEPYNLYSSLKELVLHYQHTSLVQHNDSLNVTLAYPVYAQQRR

IC50 [3]	inhibition at 1 µM ([3]; single concentration 1 μM)	inhibition at 2 µM [3]	SMILES	further results
–	–	–	O=c1cc(-c2ccccc2)sc(N2CCOCC2)c1 [Compound 1, 2-Morpholin-4-yl-6-phenyl-thiopyran-4-one]	IC50 [1]: 10 µM; IC50 [2]: > 100 µM; melting point: 160 to 161 °C
–	–	–	CC(C)(C)c1ccc(-c2cc(=O)cc(N3CCOCC3)s2)cc1 [Compound 2, 2-(4-tert-Butyl-phenyl)-6-morpholin-4-yl-thiopyran-4-one]	IC50 [1]: 40 µM; IC50 [2]: > 100 µM; melting point: 172 to 173 °C
–	–	–	COc1ccc(-c2cc(=O)cc(N3CCOCC3)s2)cc1 [Compound 3, 2-(4-Methoxy-phenyl)-6-morpholin-4-yl-thiopyran-4-one]	IC50 [1]: 8 µM; IC50 [2]: > 100 µM
–	–	–	O=c1cc(-c2ccc(Cl)cc2)sc(N2CCOCC2)c1 [Compound 4, 2-(4—Chloro-phenyl)-6-morpholin-4-yl-thiopyran-4-one]	IC50 [1]: 5 µM; IC50 [2]: > 100 µM
–	–	–	O=c1cc(-c2ccc(Br)cc2)sc(N2CCOCC2)c1 [Compound 5, 6-(4-Broinophenyl)-2-morpholin-4-yl-thiopyran-4-one]	melting point: 214 to 215 °C
–	–	–	O=c1cc(-c2cccc(Br)c2)sc(N2CCOCC2)c1 [Compound 6, 6-(3-Bromophenyl)-2-morpholin-4-yl-thiopyran-4-one]	melting point: 181 to 182 °C
≤ 2 µM	≥ 10%	≥ 50%	O=c1cc(-c2ccc(-c3cccc(O)c3)cc2)sc(N2CCOCC2)c1 [Compound 14]	–
–	≥ 10%	≥ 50%	CC(=O)Nc1cccc(-c2cccc(-c3cc(=O)cc(N4CCOCC4)s3)c2)c1 [Compound 31]	–
–	≥ 10%	≥ 50%	O=c1cc(-c2cccc(-c3cccc(O)c3)c2)sc(N2CCOCC2)c1 [Compound 42]	–
≤ 2 µM	≥ 10%	≥ 50%	O=c1cc(-c2cccc(-c3ccc(O)cc3)c2)sc(N2CCOCC2)c1 [Compound 43]	–
≤ 2 µM	≥ 10%	≥ 50%	Nc1ccc(-c2cccc(-c3cc(=O)cc(N4CCOCC4)s3)c2)cc1 [Compound 48]	–
≤ 2 µM	≥ 10%	≥ 50%	Nc1cccc(-c2cccc(-c3cc(=O)cc(N4CCOCC4)s3)c2)c1 [Compound 49]	–
≤ 2 µM	≥ 10%	≥ 50%	CC(=O)Nc1ccccc1-c1cccc(-c2cc(=O)cc(N3CCOCC3)s2)c1 [Compound 51]	–
≤ 2 µM	≥ 10%	≥ 50%	O=c1cc(-c2ccc(-c3cccs3)cc2)sc(N2CCOCC2)c1 [Compound 57]	–
–	≥ 10%	≥ 50%	O=c1cc(-c2ccc(-c3cccc4ccccc34)cc2)sc(N2CCOCC2)c1 [Compound 59]	–
≤ 2 µM	≥ 10%	≥ 50%	Cc1ccc(-c2cccc(-c3cc(=O)cc(N4CCOCC4)s3)c2)c2ccccc12 [Compound 63]	–
≤ 2 µM	≥ 10%	≥ 50%	O=c1cc(-c2cccc(-c3cccc4ccccc34)c2)sc(N2CCOCC2)c1 [Compound 69]	–
≤ 2 µM	≥ 10%	≥ 50%	O=Cc1sccc1-c1cccc(-c2cc(=O)cc(N3CCOCC3)s2)c1 [Compound 70]	–
1.5 µM	–	–	O=c1cc(N2CCOCC2)oc2c(-c3ccccc3)cccc12 [LY294002, reference compound]	IC50 [2]: > 100 µM; IC50 [4]: ~1 µM; sensitisation of cells to the effects of IR [5]: weakly sensitise cells to the effects of IR

SMILES	IC50 [3]	inhibition at 1 µM ([3]; single concentration 1 μM)	inhibition at 2 µM [3]	further results
O=c1cc(-c2cccc(-c3ccccc3-c3ccccc3)c2)sc(N2CCOCC2)c1 [Compound 30]	≤ 2 µM	–	≥ 50%	inhibition at 1 µM [3]: ≥ 10%
CC(=O)c1cccc(-c2cccc(-c3cc(=O)cc(N4CCOCC4)s3)c2)c1 [Compound 33]	≤ 2 µM	–	≥ 50%	inhibition at 1 µM [3]: ≥ 10%
O=c1cc(-c2cccc(-c3cccc(-c4ccccc4)c3)c2)sc(N2CCOCC2)c1 [Compound 35]	≤ 2 µM	–	≥ 50%	inhibition at 1 µM [3]: ≥ 10%
O=c1cc(-c2cccc(-c3cccc(CO)c3)c2)sc(N2CCOCC2)c1 [Compound 40]	≤ 2 µM	–	≥ 50%	inhibition at 1 µM [3]: ≥ 10%
O=c1cc(-c2cccc(-c3ccc(CO)cc3)c2)sc(N2CCOCC2)c1 [Compound 41]	≤ 2 µM	–	≥ 50%	inhibition at 1 µM [3]: ≥ 10%
NCc1ccc(-c2cccc(-c3cc(=O)cc(N4CCOCC4)s3)c2)cc1 [Compound 46]	≤ 2 µM	–	≥ 50%	inhibition at 1 µM [3]: ≥ 10%
O=c1cc(-c2cccc(-c3csc4ccccc34)c2)sc(N2CCOCC2)c1 [Compound 64]	≤ 2 µM	≥ 10%	≥ 50%	–
